Measured values taken from patent US20040258621A1, “Method of treating snoring and other obstructive breathing disorders” (priority 2002, published 2004).
Counter-ions that a name gives are not always drawn. Like-named read-outs stand apart in the source and are kept apart here.

How the values were obtained:
[1] = especially at room temperature; cited from earlier work
[2] = cited from earlier work; for stability in acidic media: acid media
[3] = cited from earlier work
[4] = +37° C., relative humidity 80%, 6 months; cited from earlier work
[5] = tested on: snoring in a nocturnal breathing obstructed person with GERD; experiment: Case study of a snoring patient with GERD; assay type: in vivo, human; details: for beneficial effect on snoring: throughout the subsequent year
Description: A person, 5 feet 3 inches tall and moderately overweight reported a 15-20 year history of progressively increasing snoring. The intensity of their snoring was well documented by their spouse, who experienced disturbed sleep as a result of their spouse's snoring, occasionally requiring them to waken the patient in order for them to obtain relief. The patient gave no history of naso-pharyngeal structural abnormalities or surgery (other than third molar extraction) and had experienced no breathing disorder.
The patient complained to their physician of a chronic scratchiness in their throat, thought to be a result of gastroesophageal reflux disease (GERD). To treat the GERD symptoms, the patient was placed on Prevacid (Lansoprazole) 15 mg once daily.

[6] = tested on: heartburn symptoms and lesions caused by heartburn; details: according to the manufacturer AstraZeneca; cited from earlier work
[7] = tested on: outpatients with significant snoring; experiment: Open label study on 8 outpatients with significant snoring; assay type: in vivo, human; details: 30 mg, 35 to 90 days (mean 61 days)
Procedure: An open label study was performed on 8 outpatients with significant snoring. The patients were treated with Prevacid 30 mg. for 30-90 days. The entry criteria were snoring with or without sleep apnea, documented by history, physical exam, and independent sleep lab studies. […] At baseline patients had all been placed on conservative nasal regimen with no improvement in their symptoms. […] At the end of treatment changes in global and spousal ratings of snoring were made along with investigator observations.
The demographics of the study group were eight males no females; a mean age of 50.6 years with a range of 32-70; a mean weight of 206 lbs with a range of 160-260; and there were 6 white, 1 black, and 1 Asian in the group. At baseline the investigator made the diagnosis of GERD in 4 patients. Spousal ratings of snoring were 3 moderate and 5 severe; 4 had moderate or severe sleep apnea; and all 8 had daytime sleepiness.
The duration of treatment ranged from 35 to 90 days with a mean of 61 days. At conclusion of the study, 7 of 8 patients had moderate or marked improvement in snoring. […] 8 of 8 patients had marked improvement in their sleep with less waking and less daytime fatigue.

COc1ccc2[nH]c([S+]([O-])Cc3ncc(C)c(OC)c3C)nc2c1 (stereo not drawn) [Omeprazole form A, omeprazole]
thermodynamic stability versus omeprazole form B [1]: thermodynamically more stable

COCCCOc1ccnc(C[S+]([O-])c2nc3ccccc3[nH]2)c1C (stereo not drawn) [Rabeprazole sodium, 2-[[[4-(3-methoxypropoxy)-3-methyl-2-pyridinyl]-methyl]sulfinyl]-1H-benzimidazole sodium salt]
stability in acidic media [2]: rapidly degraded
stability under alkaline conditions [2]: more stable
solubility ([3]; chloroform): freely soluble
solubility ([3]; ethanol): freely soluble
solubility ([3]; ether): insoluble
solubility ([3]; ethyl acetate): freely soluble
solubility ([3]; methanol): very soluble
solubility ([3]; n-hexane): insoluble
solubility ([3]; water): very soluble

COc1ccc2[nH]c([S+]([O-])Cc3ncc(C)c(OC)c3C)nc2c1 (stereo not drawn) [omeprazole, 5-methoxy-2-[[(4-methoxy-3,5-dimethyl-2-pyridinyl)methyl]sulfinyl]-1H-benzimidazole]
substance converted to degradation products [4]: about 6%

CN/C(=N/CCSCc1nc[nH]c1C)NC#N [Tagamet (Cimetidine), cimetidine]
beneficial effect on snoring [5]: maintained

NC(N)=Nc1nc(CSCCC(N)=NS(N)(=O)=O)cs1 [Pepcid AC (Famotidine), famotidine]
beneficial effect on snoring [5]: maintained

COc1ccc2c(c1)nc([S@@+]([O-])Cc1ncc(C)c(OC)c1C)[n]2[Mg][n]1c([S@@+]([O-])Cc2ncc(C)c(OC)c2C)nc2cc(OC)ccc21.O.O.O [esomeprazole magnesium, bis(5-methoxy-2-[(S)-[(4-methoxy-3,5-dimethyl-2-pyridinyl)methyl]sulfinyl]-1H-benzimidazole-1-yl) magnesium trihydrate]
stability in acidic media [2]: rapidly degrades
stability under alkaline conditions [2]: acceptable stability
rates of healing of certain lesions caused by heartburn versus PRILOSEC [6]: higher rates of healing
reduction of heartburn symptoms versus PRILOSEC [6]: faster
solubility ([3]; water): slightly soluble

Cc1c(OCC(F)(F)F)ccnc1C[S+]([O-])c1nc2ccccc2[nH]1 (stereo not drawn) [Prevacid (Lansoprazole), 2-[[[3-methyl-4-(2,2,2-trifluoroethoxy)-2-pyridyl]methyl]sulfinyl]benzimidazole]
intensity of the patient's snoring (spouse's observation) ([5]; 15 mg once daily): gradual decline
throat scratchiness ([5]; 15 mg once daily, after beginning treatment): declined promptly
benefit on snoring sustained for the duration of dosing ([5]; 15 mg once daily, approximately 12 months): moderate to marked benefit
snoring after dosing was interrupted ([5]; dosing interrupted for several weeks): resumption of noticeable snoring intensity
patients with marked improvement in their sleep with less waking and less daytime fatigue [7]: 8 of 8
patients with moderate or marked improvement in snoring [7]: 7 of 8
